Results reported in article PMC9693575, “Isopropyl Amino Acid Esters Ionic Liquids as Vehicles for Non-Steroidal Anti-Inflammatory Drugs in Potential Topical Drug Delivery Systems with Antimicrobial Activity” (International Journal of Molecular Sciences, 2022).
Read-outs that look alike come from different tables or passages of the source.

What was measured:
Escherichia coli = assay: Disc diffusion antimicrobial susceptibility test, Escherichia coli; type: cell-based; parameters: key to Inhibition diameter: -: no growth of the organism
Protocol: (§1) The plates were incubated for 24 h at 37 °C.

[1] = test system: Staphylococcus epidermidis; assay: Disc diffusion antimicrobial susceptibility test, Staphylococcus epidermidis; type: cell-based; parameters: key to Inhibition diameter: -: no growth of the organism
Protocol: as §1

[2] = pKa / pKB by potentiometric acid-base titration and formation constant log(KS); details: calculated from pKA of acid and pKB of base
How it was run: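 Potentiometric acid-base titration used 0.1 M NaOH as titrant for pKA of acids. For ester hydrochlorides, aqueous HCl was added first, followed by dropwise titration with 5 mM titrant.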

[3] = cited from earlier work; for TDTGmax, maximum decomposition temperature: DTG
[4] = cited from earlier work
Micrococcus Luteus = assay: Disc diffusion antimicrobial susceptibility test, Micrococcus luteus; type: cell-based; parameters: key to Inhibition diameter: -: no growth of the organism
[5] = n-octanol-water partition coefficient (logP), shake flask method; type: physicochemical; details: n-octanol-water, shake flask; read-out: LogP
[6] = 25 °C; cited from earlier work
[7] = Solubility in water and phosphate buffers
From the text: This study aims to compare the influence of amino acid structure on the physicochemical properties of NSAID salts with the isopropyl ester of amino acids.

[8] = solution transferred to disc 25 mg cm^−3
[9] = solution transferred to disc 50 mg cm^−3
[10] = solution transferred to disc 100 mg cm^−3
[11] = solution transferred to disc 200 mg cm^−3
[12] = solution transferred to disc 400 mg cm^−3
[13] = solution transferred to disc 600 mg cm^−3
[14] = solution transferred to disc 1000 mg cm^−3
[15] = solution transferred to disc 800 mg cm^−3

Q: Which Inhibition diameter (Escherichia coli; [8]) does the source give for `CC(C)Cc1ccc(C(C)C(=O)O)cc1.CC(C)OC(=O)C(N)C(C)C` (mixture of isomers) [[L-ValOiPr][IBU]] here?
A: -

Q: What about the Inhibition diameter (Escherichia coli; [9]) of the same molecule?
A: -

Q: And the Inhibition diameter (Escherichia coli; [10])?
A: -

Q: And the Inhibition diameter (Escherichia coli; [11])?
A: 6.2 ± 0.1 mm

Q: What about the Inhibition diameter (Escherichia coli; [12]) of the same molecule?
A: 6.3 ± 0.2 mm

Q: And the Inhibition diameter (Escherichia coli; [13])?
A: 6.8 ± 0.5 mm

Q: And the Inhibition diameter (Escherichia coli; [14])?
A: 7.1 ± 0.3 mm

Q: What about the Inhibition diameter [1, 8] of the same molecule?
A: 7.3 ± 0.2 mm

Q: What about the Inhibition diameter [1, 9] of the same molecule?
A: 10.4 ± 0.1 mm

Q: And the Inhibition diameter [1, 10]?
A: 12.8 ± 0.2 mm

Q: What about the Inhibition diameter [1, 11] of the same molecule?
A: 13.2 ± 0.2 mm

Q: What about the Inhibition diameter [1, 12] of the same molecule?
A: 16.3 ± 0.3 mm

Q: And the Inhibition diameter [1, 13]?
A: 17.7 ± 0.3 mm

Q: And the Inhibition diameter [1, 15]?
A: 18.4 ± 0.2 mm

Q: And the Inhibition diameter [1, 14]?
A: 18.9 ± 0.3 mm

Q: What about the “Log(KS) formation constant” value [2] of the same molecule?
A: 5.56

Q: What about the “TDTGmax, maximum decomposition temperature” value [3] of the same molecule?
A: 215.5 [50] °C

Q: What about the “Solubility in Phosphate Buffer pH = 5.4” value ([4]; pH 5.4) of the same molecule?
A: 2.351 ± 0.027 [45] g dm^−3

Q: What about the “Solubility in Phosphate Buffer pH = 5.4, as active substance” value ([4]; pH 5.4) of the same molecule?
A: 1.326 ± 0.027 [45] gAS dm^−3

Q: And the “Solubility in Phosphate Buffer pH = 7.4” value ([4]; pH 7.4)?
A: 4.998 ± 0.018 [45] g dm^−3

Q: And the “Solubility in Phosphate Buffer pH = 7.4, as active substance” value ([4]; pH 7.4)?
A: 2.821 ± 0.018 [45] gAS dm^−3

Q: And the Inhibition diameter (Micrococcus Luteus; [8])?
A: 8.4 ± 0.3 mm

Q: What about the Inhibition diameter (Micrococcus Luteus; [9]) of the same molecule?
A: 9.1 ± 0.2 mm

Q: And the Inhibition diameter (Micrococcus Luteus; [10])?
A: 9.6 ± 0.1 mm

Q: And the Inhibition diameter (Micrococcus Luteus; [11])?
A: 10.5 ± 0.2 mm

Q: And the Inhibition diameter (Micrococcus Luteus; [12])?
A: 11.2 ± 0.2 mm

Q: And the Inhibition diameter (Micrococcus Luteus; [13])?
A: 11.7 ± 0.2 mm

Q: What about the Inhibition diameter (Micrococcus Luteus; [15]) of the same molecule?
A: 12.6 ± 0.3 mm

Q: What about the Inhibition diameter (Micrococcus Luteus; [14]) of the same molecule?
A: 13.2 ± 0.2 mm

Q: For `CC(C)OC(=O)C(N)C(C)C.O=C(O)c1ccccc1O` [[L-ValOiPr][SA]], which logP [5] is on record?
A: 1.61 ± 0.057

Q: And the zone of inhibition at 50000 µg/mL (Escherichia coli; Escherichia coli, 24 h, solution transferred to disc 50 mg cm^−3, read-out: Inhibition diameter)?
A: 6.2 ± 0.1 mm

Q: What about the zone of inhibition at 100000 µg/mL (Escherichia coli; Escherichia coli, 24 h, solution transferred to disc 100 mg cm^−3, read-out: Inhibition diameter) of the same molecule?
A: 6.3 ± 0.2 mm

Q: And the zone of inhibition at 200000 µg/mL (Escherichia coli; Escherichia coli, 24 h, solution transferred to disc 200 mg cm^−3, read-out: Inhibition diameter)?
A: 7.5 ± 0.1 mm

Q: And the zone of inhibition at 400000 µg/mL (Escherichia coli; Escherichia coli, 24 h, solution transferred to disc 400 mg cm^−3, read-out: Inhibition diameter)?
A: 8.9 ± 0.4 mm

Q: What about the zone of inhibition at 600000 µg/mL (Escherichia coli; Escherichia coli, 24 h, solution transferred to disc 600 mg cm^−3, read-out: Inhibition diameter) of the same molecule?
A: 12.6 ± 0.3 mm

Q: And the Inhibition diameter (Escherichia coli; [8])?
A: -

Q: And the zone of inhibition at 600000 µg/mL ([1]; Staphylococcus epidermidis, 24 h, solution transferred to disc 600 mg cm^−3, read-out: Inhibition diameter)?
A: 6.7 ± 0.3 mm

Q: And the zone of inhibition at 800000 µg/mL ([1]; Staphylococcus epidermidis, 24 h, solution transferred to disc 800 mg cm^−3, read-out: Inhibition diameter)?
A: 8.4 ± 0.3 mm

Q: What about the Inhibition diameter [1, 8] of the same molecule?
A: -

Q: What about the Inhibition diameter [1, 9] of the same molecule?
A: -

Q: What about the Inhibition diameter [1, 10] of the same molecule?
A: -

Q: And the Inhibition diameter [1, 11]?
A: -

Q: What about the Inhibition diameter [1, 12] of the same molecule?
A: -

Q: What about the “Log(KS) formation constant” value [2] of the same molecule?
A: 7.03

Q: What about the “Solubility in Chloroform (39.1)” value [6] of the same molecule?
A: ○ [49] (soluble >100 mg cm^−3)

Q: What about the “Solubility in DMSO (45.1)” value [6] of the same molecule?
A: ○ [49] (soluble >100 mg cm^−3)

Q: And the “Solubility in Dichloromethane (40.7)” value [6]?
A: ○ [49] (soluble >100 mg cm^−3)

Q: What about the “Solubility in Diethyl Ether (34.5)” value [6] of the same molecule?
A: ◐ [49] (partially soluble 33–100 mg cm^−3)

Q: What about the “Solubility in Ethanol (59.1)” value [6] of the same molecule?
A: ○ [49] (soluble >100 mg cm^−3)

Q: What about the “Solubility in Ethyl Acetate (38.1)” value [6] of the same molecule?
A: ◐ [49] (partially soluble 33–100 mg cm^−3)

Q: What about the “Solubility in Hexane (31.0)” value [6] of the same molecule?
A: ● [49] (insoluble <33 mg cm^−3)

Q: What about the “Solubility in Toluene (33.9)” value [6] of the same molecule?
A: ○ [49] (soluble >100 mg cm^−3)

Q: And the “TDTGmax, maximum decomposition temperature” value [3]?
A: 197.6 [49] °C

Q: What about the “TTGonset, the onset of the thermal degradation” value ([3]; TG) of the same molecule?
A: 124.6 [49] °C

Q: What about the “Solubility in Water, as active substance” value ([7]; deionized water, 25 °C, AS = unmodified acid) of the same molecule?
A: 7.761 ± 2.044 gAS dm^−3

Q: And the “Solubility in Phosphate Buffer pH = 5.4, as active substance” value ([7]; pH 5.4, 25 °C, AS = unmodified acid)?
A: 5.259 ± 0.014 gAS dm^−3

Q: And the solubility thermodynamic ([7]; pH 5.4, aqueous buffer)?
A: 11.32 ± 0.014 mg/mL

Q: And the “Solubility in Phosphate Buffer pH = 7.4, as active substance” value ([7]; pH 7.4, 25 °C, AS = unmodified acid)?
A: 8.702 ± 0.027 gAS dm^−3

Q: And the solubility thermodynamic ([7]; pH 7.4, aqueous buffer)?
A: 18.73 ± 0.027 mg/mL

Q: And the solubility thermodynamic ([7]; water)?
A: 16.7 ± 2.04 mg/mL

Q: What about the zone of inhibition at 600000 µg/mL (Micrococcus Luteus; Micrococcus luteus, 24 h, solution transferred to disc 600 mg cm^−3, read-out: Inhibition diameter) of the same molecule?
A: 8.6 ± 0.3 mm

Q: What about the zone of inhibition at 800000 µg/mL (Micrococcus Luteus; Micrococcus luteus, 24 h, solution transferred to disc 800 mg cm^−3, read-out: Inhibition diameter) of the same molecule?
A: 15.9 ± 1.2 mm

Q: And the Inhibition diameter (Micrococcus Luteus; [8])?
A: -

Q: What about the Inhibition diameter (Micrococcus Luteus; [9]) of the same molecule?
A: -

Q: And the Inhibition diameter (Micrococcus Luteus; [10])?
A: -

Q: What about the Inhibition diameter (Micrococcus Luteus; [11]) of the same molecule?
A: -

Q: What about the Inhibition diameter (Micrococcus Luteus; [12]) of the same molecule?
A: -
